Measurements published in patent publication US20250129032A1 (Nerio Therapeutics, Inc., priority 2022, published 2025).
pIC50: −log10 of the molar value.

Columns and labels:
[1] = target: untagged, full-length human PTPN2 (TC45) (1-387) protein (Homo sapiens (Human), UniProt P17706); experiment: Enzymatic assay used to determine potency of PTPN2 inhibitors (DiFMUP substrate); assay type: biochemical; settings: 0.5 nM PTPN2, 100 μM DiFMUP, 30 min at room temperature
From the text: Compounds were subsequently added using a Tecan D300e dispenser. […] A four-parameter curve fit was used to determine IC50 values from % inhibition data.

[2] = system: murine B16F10 melanoma cell line; experiment: B16F10 IFNγ-induced cellular growth inhibition assay (xCELLigence RTCA); assay type: cell-based; settings: Mus musculus, B16-F10, 48 h; read-out: B16 IFNγ Mediated Growth Inhibition Assay: AVG IC50
Experimental: Example B: B16F10 Cellular Growth Inhibition Assay Compound activity was determined using an interferon gamma (IFNγ)-induced cellular growth inhibition assay with the murine B16F10 melanoma cell line on an Agilent xCELLigence Real-Time Cell Analysis platform (RTCA). RTCA E-Plate View 96 plates (Agilent, 300601010) were pre-equilibrated with 50 μL of assay media (DMEM+10% FBS, Gibco 10566-024, Gibco 10082-147) at 37° C. in a humidified incubator before taking an initial measurement of impedance (sweep). B16F10 cells cultured in assay media were dissociated with TrypLE Express (Gibco 12605-010) for five minutes at 37° C., diluted in 3 volumes of assay buffer, centrifuged for 5 minutes at 500×g at room temperature before diluting cells to 7,700 cells/mL in assay media, plating 130 μL/well (1,000 cells/well) in the inner 60 wells of the assay plate, and adding 150 μL of assay media to the outer wells of the plate. Cells were incubated at room temperature for 20 min to allow cells to settle before placing them in the xCELLigence reader and incubating overnight at 37° C., sweeping wells every 15 minutes. After 24 hours, well readings were paused, plates were removed from the incubator and compounds were added using a Tecan D300e dispenser. All wells were normalized to a final concentration of 0.5% DMSO. Following a 30 min incubation at 37° C., recombinant mouse IFNγ (R&D Systems™ 485MI100) was diluted to 10 ng/mL in assay media and 20 μL was added to assay wells (1 ng/mL final concentration). Assay plates were placed in the xCELLigence reader and swept every 15 minutes. After 48 hours, well readings were normalized to the time point immediately preceding compound addition and the area under the growth curve (AUC) was calculated by the RTCA software and exported.

Sequence of untagged, full-length human PTPN2 (TC45) (1-387) protein (P17706 other isoform, or with tags, fused parts or gaps): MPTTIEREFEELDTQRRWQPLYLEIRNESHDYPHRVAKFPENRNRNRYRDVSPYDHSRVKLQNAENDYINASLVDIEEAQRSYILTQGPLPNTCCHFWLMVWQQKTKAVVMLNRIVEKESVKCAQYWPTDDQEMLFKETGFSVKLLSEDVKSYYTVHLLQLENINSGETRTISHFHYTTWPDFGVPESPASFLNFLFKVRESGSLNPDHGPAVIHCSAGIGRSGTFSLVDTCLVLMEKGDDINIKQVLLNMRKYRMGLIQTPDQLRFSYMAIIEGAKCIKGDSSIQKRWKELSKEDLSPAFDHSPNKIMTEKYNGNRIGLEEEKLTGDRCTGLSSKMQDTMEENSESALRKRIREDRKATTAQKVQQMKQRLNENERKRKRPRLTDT

| SMILES | pIC50 [1] | pIC50 [2] |
| --- | --- | --- |
| N#CCC1CCc2cc(O)c(N3CC(=O)NS3(=O)=O)c(F)c2CC1 (stereo not shown) [Example 32] | 7.33 | 4.83 |
| CCN[C@@H]1CCc2cc(O)c(N3CC(=O)NS3(=O)=O)c(F)c2CC1 (single isomer, unassigned) [Example 21] | 6.43 | 4.27 |
| CC(C)CCN(C)C1CCCc2cc(O)c(N3CC(=O)NS3(=O)=O)c(F)c2C1 (stereo not shown) [Example 28, 5-(1-fluoro-3-hydroxy-8-(isopentyl(methyl)amino)-6,7,8,9-tetrahydro-5H-benzo[7]annulen-2-yl)-1,2,5-thiadiazolidin-3-one 1,1-dioxide] | 7.40 | < 4.21 |
| CNC1CCc2cc(O)c(N3CC(=O)NS3(=O)=O)c(F)c2CC1 (stereo not shown) [Example 3] | 7.78 | 5.29 |
| CN(C)[C@H]1CCc2cc(O)c(N3CC(=O)NS3(=O)=O)c(F)c2CC1 (single isomer, unassigned) [Example 18] | 6.06 | < 4.00 |
| NCC[C@H]1CCc2cc(O)c(N3CC(=O)NS3(=O)=O)c(F)c2CC1 (single isomer, unassigned) [Example 2] | 6.75 |  |
| O=C1CN(c2c(O)cc3c(c2F)CC[C@H](N2CCCC2)CC3)S(=O)(=O)N1 (single isomer, unassigned) [Example 15] | 7.10 | 4.77 |
| CC(C)(C)NC1CCc2cc(O)c(N3CC(=O)NS3(=O)=O)c(F)c2CC1 (stereo not shown) [Example 13] | 7.07 | < 4.00 |
| CN(C)CCC1CCc2cc(O)c(N3CC(=O)NS3(=O)=O)c(F)c2CC1 (stereo not shown) [Example 33] | 7.68 |  |
| O=C1CN(c2c(O)cc3c(c2F)CC[C@@H](N2CCCC2)CC3)S(=O)(=O)N1 (single isomer, unassigned) [Example 14] | 7.87 | 4.82 |
| CC(C)CCNC1CCCc2cc(O)c(N3CC(=O)NS3(=O)=O)c(F)c2C1 (stereo not shown) [Example 25, 5-(1-fluoro-3-hydroxy-8-(isopentylamino)-6,7,8,9-tetrahydro-5H-benzo[7]annulen-2-yl)-1,2,5-thiadiazolidin-3-one 1,1-dioxide] | 7.59 | 5.15 |
| O=C1CN(c2c(O)cc3c(c2F)CCNCC3)S(=O)(=O)N1 [Example 30, 5-(6-fluoro-8-hydroxy-2,3,4,5-tetrahydro-1H-benzo[d]azepin-7-yl)-1,2,5-thiadiazolidin-3-one 1,1-dioxide] | 8.64 | 6.00 |
| O=C1CN(c2c(O)cc3c(c2F)CC[C@H](N2CCC4(CCC4)C2)CC3)S(=O)(=O)N1 (single isomer, unassigned) [Example 17] | 7.03 | 4.87 |
| CC(C)CCNC1CCc2cc(O)c(N3CC(=O)NS3(=O)=O)c(F)c2CC1 (stereo not shown) [Example 22] | 7.61 |  |
| O=C1CN(c2c(O)cc3c(c2F)CCC(O)CC3)S(=O)(=O)N1 (stereo not shown) [Example 8] | 7.33 | 5.80 |
| O=C1CN(c2c(O)cc3c(c2F)CCC(NC2CCCC2)CC3)S(=O)(=O)N1 (stereo not shown) [Example 12] | 7.70 | 5.39 |
| CNC[C@H]1CCc2cc(O)c(N3CC(=O)NS3(=O)=O)c(F)c2CC1 (single isomer, unassigned) [Example 23] | 8.70 | 5.67 |

| SMILES | pIC50 [1] | pIC50 [2] |
| --- | --- | --- |
| NCC[C@@H]1CCc2cc(O)c(N3CC(=O)NS3(=O)=O)c(F)c2CC1 (single isomer, unassigned) [Example 1] | 8.29 |  |
| O=C1CN(c2c(O)cc3c(c2F)CCC(N2CCCC2)CC3)S(=O)(=O)N1 (stereo not shown) [Example 9] | 7.67 | 5.38 |
| CC(C)CCN[C@@H]1CCCc2cc(O)c(N3CC(=O)NS3(=O)=O)c(F)c2C1 (single isomer, unassigned) [Example 27] | 6.67 | < 4.15 |
| CC(C)CCN[C@H]1CCCc2cc(O)c(N3CC(=O)NS3(=O)=O)c(F)c2C1 (single isomer, unassigned) [Example 26] | 7.70 | 5.30 |
| O=C1CN(c2c(O)cc3c(c2F)CC[C@@H](NCCC2CCCC2)CC3)S(=O)(=O)N1 (single isomer, unassigned) [Example 10] | 8.30 | 5.18 |
| CN(C)C1CCc2cc(O)c(N3CC(=O)NS3(=O)=O)c(F)c2CC1 (stereo not shown) [Example 4] | 7.83 | 5.54 |
| N[C@H]1CCc2cc(O)c(N3CC(=O)NS3(=O)=O)c(F)c2CC1 (single isomer, unassigned) [Example 6] | 8.25 | 5.79 |
| CC(C)CCCN1CCc2cc(O)c(N3CC(=O)NS3(=O)=O)c(F)c2CC1 [Example 31, 5-(6-fluoro-8-hydroxy-3-(4-methylpentyl)-2,3,4,5-tetrahydro-1H-benzo[d]azepin-7-yl)-1,2,5-thiadiazolidin-3-one 1,1-dioxide] | 8.97 | 5.76 |
| O=C1CN(c2c(O)cc3c(c2F)CC[C@@H](N2CCC4(CCC4)C2)CC3)S(=O)(=O)N1 (single isomer, unassigned) [Example 16] | 7.97 | 5.18 |
| CN(C)[C@@H]1CCc2cc(O)c(N3CC(=O)NS3(=O)=O)c(F)c2CC1 (single isomer, unassigned) [Example 19] | 7.91 | 5.57 |
| N[C@@H]1CCc2cc(O)c(N3CC(=O)NS3(=O)=O)c(F)c2CC1 (single isomer, unassigned) [Example 7] | 6.35 | < 4.00 |
| O=C1CN(c2c(O)cc3c(c2F)CC[C@H](NCCC2CCCC2)CC3)S(=O)(=O)N1 (single isomer, unassigned) [Example 11] | 6.83 | < 4.00 |
| CNC[C@@H]1CCc2cc(O)c(N3CC(=O)NS3(=O)=O)c(F)c2CC1 (single isomer, unassigned) [Example 24] | 7.12 |  |
| O=C1CN(c2c(O)cc3c(c2F)CCCCC3)S(=O)(=O)N1 [Example 29, 5-(1-fluoro-3-hydroxy-6,7,8,9-tetrahydro-5H-benzo[7]annulen-2-yl)-1,2,5-thiadiazolidin-3-one 1,1-dioxide] | 6.96 | 4.87 |
| CCN[C@H]1CCc2cc(O)c(N3CC(=O)NS3(=O)=O)c(F)c2CC1 (single isomer, unassigned) [Example 20] | 7.90 | 5.38 |
| CCNC1CCc2cc(O)c(N3CC(=O)NS3(=O)=O)c(F)c2CC1 (stereo not shown) [Example 5] | 7.76 | 5.60 |
